Measurements from PubChem BioAssay (NCI).
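48-hour exposure; five concentrations; linearly interpolated endpoints. TGI: total growth inhibition.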

What was measured:
Test in all cases: NCI tumour cell line growth inhibition, 48 h
[1] = tested on: T-47D breast
[2] = tested on: MDA-MB-435
[3] = tested on: SK-MEL-2 melanoma
[4] = tested on: NCI-H522 lung
[5] = tested on: UO-31 renal
[6] = tested on: NCI-H23 lung
[7] = tested on: SR leukemia
[8] = tested on: HL-60(TB) leukemia
[9] = tested on: M14 melanoma
[10] = tested on: MDA-MB-231 breast
[11] = tested on: RPMI-8226 leukemia
[12] = tested on: BT-549 breast
[13] = tested on: MCF7 breast
[14] = tested on: K-562 leukemia
[15] = tested on: KM12 colon
[16] = tested on: RXF 393 renal
[17] = tested on: HOP-62 NSCLC
[18] = tested on: OVCAR-5 ovarian
[19] = tested on: OVCAR-3 ovarian
[20] = tested on: OVCAR-8 ovarian
[21] = tested on: SNB-19 CNS
[22] = tested on: ACHN renal
[23] = tested on: LOX IMVI melanoma
[24] = tested on: COLO 205 colon
[25] = tested on: MDA-N
[26] = tested on: SK-OV-3 ovarian
[27] = tested on: PC-3 prostate
[28] = tested on: SF-268 CNS
[29] = tested on: DU-145 prostate
[30] = tested on: NCI-H460 lung
[31] = tested on: U251 CNS
[32] = tested on: MALME-3M melanoma
[33] = tested on: HT29 colon
[34] = tested on: A498 renal
[35] = tested on: IGROV1 ovarian
[36] = tested on: SK-MEL-5 melanoma
[37] = tested on: MOLT-4 leukemia
[38] = tested on: SN12C renal
[39] = tested on: HCT-15 colon
[40] = tested on: CCRF-CEM leukemia
[41] = tested on: 786-0 renal
[42] = tested on: UACC-257 melanoma
[43] = tested on: A549 NSCLC
[44] = tested on: EKVX NSCLC
[45] = tested on: HCT-116 colon
[46] = tested on: HOP-92 NSCLC
[47] = tested on: SW-620 colon
[48] = tested on: HS 578T breast
[49] = tested on: SF-539 CNS
[50] = tested on: SNB-75 CNS
[51] = tested on: SF-295 CNS
[52] = tested on: HCC-2998 colon
[53] = tested on: NCI/ADR-RES ovarian
[54] = tested on: SK-MEL-28 melanoma
[55] = tested on: NCI-H226 lung
[56] = tested on: OVCAR-4 ovarian
[57] = tested on: TK-10 renal
[58] = tested on: UACC-62 melanoma
[59] = tested on: CAKI-1 renal

O=C(O)C1=C(C(=O)O)N(c2ccncc2)C(c2ccco2)=CC1c1ccccc1[N+](=O)[O-] (stereo not given)
TGI [1]: 20.1 µM | TGI [2]: > 56 µM | TGI [3]: 37.3 µM | TGI [4]: 9.59 µM | TGI [5]: 20.6 µM | TGI [6]: 25.8 µM | TGI [7]: 5.68 µM | TGI [8]: 7.85 µM | TGI [9]: 22.5 µM | TGI [10]: 30.7 µM | TGI [11]: > 24.6 µM | TGI [12]: 30 µM | TGI [13]: 10.1 µM | TGI [14]: > 100 µM | TGI [15]: 3.36 µM | TGI [16]: 21.3 µM | TGI [17]: 33.7 µM | TGI [18]: 33.8 µM | TGI [19]: 23.5 µM | TGI [20]: > 59 µM | TGI [21]: 35.5 µM | TGI [22]: 3.13 µM | TGI [23]: 4.02 µM | TGI [24]: 31.1 µM | TGI [25]: 20.7 µM | TGI [26]: 44.1 µM | TGI [27]: 27.9 µM | TGI [28]: 36.1 µM | TGI [29]: 24.9 µM | TGI [30]: 28.9 µM | TGI [31]: 28 µM | TGI [32]: 22.3 µM | TGI [33]: 3.2 µM | TGI [34]: 28.1 µM | TGI [35]: 4.84 µM | TGI [36]: > 47.4 µM | TGI [37]: 14.5 µM | TGI [38]: 29.1 µM | TGI [39]: 4.25 µM | TGI [40]: > 23.8 µM | TGI [41]: 4.06 µM | TGI [42]: 5.28 µM | TGI [43]: 35.9 µM | TGI [44]: 26.6 µM | TGI [45]: 3.4 µM | TGI [46]: 22.1 µM | TGI [47]: > 27.1 µM | TGI [48]: 62 µM | TGI [49]: 4.55 µM | TGI [50]: 23.9 µM | TGI [51]: 25.5 µM | TGI [52]: 3.57 µM | TGI [53]: > 69.9 µM | TGI [54]: > 54.8 µM | TGI [55]: 40.2 µM | TGI [56]: 25.9 µM | TGI [57]: 17.6 µM | TGI [58]: 32.1 µM | TGI [59]: 34.6 µM

Cc1cccc2c(N)c3cccc(C(=O)NCC[N+](C)(C)Cc4sccc4[N+](=O)[O-])c3nc12
TGI [1]: > 100 µM | TGI [2]: > 100 µM | TGI [3]: > 100 µM | TGI [4]: 29.1 µM | TGI [5]: > 100 µM | TGI [6]: 30 µM | TGI [7]: > 100 µM | TGI [8]: > 100 µM | TGI [9]: 32.8 µM | TGI [10]: 67.7 µM | TGI [12]: 66.2 µM | TGI [13]: 25.2 µM | TGI [14]: > 100 µM | TGI [15]: 28.2 µM | TGI [16]: 33.4 µM | TGI [17]: > 100 µM | TGI [18]: 33.1 µM | TGI [19]: > 100 µM | TGI [20]: 35.9 µM | TGI [21]: > 100 µM | TGI [22]: 18.1 µM | TGI [23]: 61 µM | TGI [24]: 79.3 µM | TGI [25]: 80.2 µM | TGI [26]: 41.3 µM | TGI [27]: 77 µM | TGI [28]: > 100 µM | TGI [29]: > 100 µM | TGI [31]: > 100 µM | TGI [32]: 27.7 µM | TGI [33]: 18.6 µM | TGI [34]: > 100 µM | TGI [35]: > 100 µM | TGI [36]: > 100 µM | TGI [37]: > 100 µM | TGI [38]: > 100 µM | TGI [39]: > 100 µM | TGI [40]: > 100 µM | TGI [41]: > 100 µM | TGI [42]: > 100 µM | TGI [43]: 16.9 µM | TGI [44]: > 100 µM | TGI [45]: 96.8 µM | TGI [46]: > 100 µM | TGI [47]: > 100 µM | TGI [48]: 28.3 µM | TGI [49]: 14.4 µM | TGI [50]: > 100 µM | TGI [51]: > 100 µM | TGI [52]: 20.8 µM | TGI [53]: > 100 µM | TGI [54]: > 100 µM | TGI [55]: 32 µM | TGI [56]: 35.5 µM | TGI [57]: > 100 µM | TGI [58]: 36 µM | TGI [59]: 43.9 µM

O=C1c2ccccc2C(=O)c2c1ccc1nc3c(nc21)-c1c2ccccc2cc2cccc-3c12
TGI [1]: > 84.2 µM | TGI [2]: 38.6 µM | TGI [3]: > 100 µM | TGI [4]: > 100 µM | TGI [5]: > 100 µM | TGI [6]: > 100 µM | TGI [7]: > 100 µM | TGI [8]: > 100 µM | TGI [9]: > 100 µM | TGI [10]: > 100 µM | TGI [11]: > 100 µM | TGI [12]: > 100 µM | TGI [13]: > 91.5 µM | TGI [14]: > 100 µM | TGI [15]: > 94.9 µM | TGI [16]: > 100 µM | TGI [17]: > 91.6 µM | TGI [18]: > 100 µM | TGI [19]: > 100 µM | TGI [20]: > 100 µM | TGI [21]: > 100 µM | TGI [22]: > 57.6 µM | TGI [23]: > 100 µM | TGI [24]: > 100 µM | TGI [25]: > 100 µM | TGI [26]: > 100 µM | TGI [27]: > 100 µM | TGI [28]: > 100 µM | TGI [29]: > 81.7 µM | TGI [30]: > 100 µM | TGI [31]: > 100 µM | TGI [32]: > 100 µM | TGI [33]: > 100 µM | TGI [34]: > 82.5 µM | TGI [35]: > 57.4 µM | TGI [36]: > 100 µM | TGI [37]: > 100 µM | TGI [38]: > 100 µM | TGI [39]: > 100 µM | TGI [40]: > 100 µM | TGI [41]: > 100 µM | TGI [42]: > 100 µM | TGI [43]: > 100 µM | TGI [44]: > 100 µM | TGI [45]: > 100 µM | TGI [46]: > 100 µM | TGI [47]: > 100 µM | TGI [48]: > 52.4 µM | TGI [49]: > 100 µM | TGI [50]: > 31.6 µM | TGI [51]: > 100 µM | TGI [52]: > 100 µM | TGI [53]: > 100 µM | TGI [54]: > 100 µM | TGI [55]: > 100 µM | TGI [56]: > 100 µM | TGI [57]: > 100 µM | TGI [58]: > 86.2 µM | TGI [59]: > 100 µM
